This note sets out measurements from ChEMBL document CHEMBL1158724, “Ipomoeassins A-E, cytotoxic macrocyclic glycoresins from the leaves of Ipomoea squamosa from the Suriname rainforest” (J Nat Prod, 2005).

In this experiment the test system is A2780. In words: Cytotoxicity against human A2780 cells. It counts as functional, cell-based.

pIC50: −log10 of the molar value.

In general, pIC50 refers to the negative decadic logarithm of the IC50, by convention in mol/L. A high value points to a low IC50.

In turn, `C/C=C(\C)C(=O)O[C@@H]1[C@@H](O)[C@@H]2O[C@H]3[C@H](O[C@@H](CCC)CCCCC[C@H](OC(C)=O)C(=O)CCC(=O)OC[C@@H](O2)[C@H]1OC(=O)/C=C/c1ccccc1)O[C@H](C)[C@H](O)[C@@H]3O` [IPOMOEASSIN E] had a negative logarithm of the IC50 (pIC50) of 5.48.

Take `C/C=C(\C)C(=O)O[C@@H]1[C@@H](O)[C@@H]2O[C@H]3[C@H](O[C@@H](CCC)CCCCC[C@H](O)C(=O)CCC(=O)OC[C@@H](O2)[C@H]1OC(=O)/C=C/c1ccccc1)O[C@H](C)[C@H](OC(C)=O)[C@@H]3O` [IPOMOEASSIN C]: the pIC50 was 5.54. The pIC50 values of the last two molecules are within 0.2 log units of each other.

`C/C=C(\C)C(=O)O[C@@H]1[C@@H](O)[C@@H]2O[C@H]3[C@H](O[C@@H](CCC)CCCCCCC(=O)CCC(=O)OC[C@@H](O2)[C@H]1OC(=O)/C=C/c1ccccc1)O[C@H](C)[C@H](O)[C@@H]3O` [IPOMOEASSIN B] had a pIC50 of 6.40.

`C/C=C(\C)C(=O)O[C@@H]1[C@@H](OC(C)=O)[C@@H]2O[C@H]3[C@H](O[C@@H](CCC)CCCCC[C@H](OC(C)=O)C(=O)CCC(=O)OC[C@@H](O2)[C@H]1OC(=O)/C=C/c1ccccc1)O[C@H](C)[C@H](OC(C)=O)[C@@H]3OC(C)=O` had a pIC50 of 4.72.

As to `C/C=C(\C)C(=O)O[C@@H]1[C@@H](O)[C@@H]2O[C@H]3[C@H](O[C@@H](CCC)CCCCCCC(=O)CCC(=O)OC[C@@H](O2)[C@H]1OC(=O)/C=C/c1ccccc1)O[C@H](C)[C@H](OC(C)=O)[C@@H]3O` [IPOMOEASSIN A], the pIC50 was 6.30.

For the molecule `C/C=C(\C)C(=O)O[C@@H]1[C@@H](O)[C@@H]2O[C@H]3[C@H](O[C@@H](CCC)CCCCC[C@H](OC(C)=O)C(=O)CCC(=O)OC[C@@H](O2)[C@H]1OC(=O)/C=C/c1ccccc1)O[C@H](C)[C@H](OC(C)=O)[C@@H]3O` [IPOMOEASSIN D], the pIC50 is 7.46.

Consider `C/C=C(\C)C(=O)O[C@@H]1[C@@H](OC(C)=O)[C@@H]2O[C@H]3[C@H](O[C@@H](CCC)CCCCCCC(=O)CCC(=O)OC[C@@H](O2)[C@H]1OC(=O)/C=C/c1ccccc1)O[C@H](C)[C@H](OC(C)=O)[C@@H]3OC(C)=O`, for which the pIC50 was 4.80.
